# Measurements as given in ChEMBL document CHEMBL4308841, “Synthesis, in vitro antiproliferative activity, and kinase inhibitory effects of pyrazole-containing diarylureas and diarylamides” (Eur J Med Chem, 2018).
# Experiments:
# MOLT-4 [1] = experiment: Growth inhibition of human MOLT4 cells assessed as cell growth at 0.1 uM incubated for 48 hrs by sulforhodamine B assay relative to control; type: functional; settings: MOLT-4, 48 h, read-out: Activity
# K562 = experiment: Growth inhibition of human K562 cells assessed as cell growth at 0.01 uM incubated for 48 hrs by sulforhodamine B assay relative to control; type: functional; settings: K562, 48 h, read-out: Activity
# CAKI-1 = experiment: Growth inhibition of human Caki1 cells assessed as cell growth at 0.01 uM incubated for 48 hrs by sulforhodamine B assay relative to control; type: functional; settings: CAKI-1, 48 h, read-out: Activity
# PC-3 = experiment: Growth inhibition of human PC3 cells assessed as cell growth at 1 uM incubated for 48 hrs by sulforhodamine B assay relative to control; type: functional; settings: PC-3, 48 h, read-out: Activity
# HCT-116 = experiment: Growth inhibition of human HCT116 cells assessed as cell growth at 100 uM incubated for 48 hrs by sulforhodamine B assay relative to control; type: functional; settings: HCT-116, 48 h, read-out: Activity
# MOLT-4 [2] = experiment: Growth inhibition of human MOLT4 cells assessed as cell growth at 100 uM incubated for 48 hrs by sulforhodamine B assay relative to control; type: functional; settings: MOLT-4, 48 h, read-out: Activity
# M14 = experiment: Growth inhibition of human M14 cells assessed as cell growth at 1 uM incubated for 48 hrs by sulforhodamine B assay relative to control; type: functional; settings: M14, 48 h, read-out: Activity
# UO-31 = experiment: Growth inhibition of human UO31 cells incubated for 48 hrs by sulforhodamine B assay; type: functional, cell-based; settings: UO-31, 48 h
# MCF7 = experiment: Growth inhibition of human MCF7 cells assessed as cell growth at 1 uM incubated for 48 hrs by sulforhodamine B assay relative to control; type: functional; settings: MCF7, 48 h, read-out: Activity
# CCRF-CEM = experiment: Growth inhibition of human CCRF-CEM cells assessed as cell growth at 100 uM incubated for 48 hrs by sulforhodamine B assay relative to control; type: functional; settings: read-out: Activity
# NCI/ADR-RES = experiment: Growth inhibition of human NCI/ADR-RES cells assessed as cell growth at 100 uM incubated for 48 hrs by sulforhodamine B assay relative to control; type: functional; settings: read-out: Activity
# SR = experiment: Growth inhibition of human SR cells assessed as cell growth at 100 uM incubated for 48 hrs by sulforhodamine B assay relative to control; type: functional; settings: read-out: Activity
# HT-29 [3] = experiment: Growth inhibition of human HT-29 cells assessed as cell growth at 0.01 uM incubated for 48 hrs by sulforhodamine B assay relative to control; type: functional; settings: HT-29, 48 h, read-out: Activity
# HL-60(TB) [4] = experiment: Growth inhibition of human HL-60(TB) cells assessed as cell growth at 0.01 uM incubated for 48 hrs by sulforhodamine B assay relative to control; type: functional; settings: HL-60, 48 h, read-out: Activity
# MDA-MB-231 = experiment: Growth inhibition of human MDA-MB-231 cells incubated for 48 hrs by sulforhodamine B assay; type: functional, cell-based; settings: MDA-MB-231, 48 h
# IGROV-1 = experiment: Growth inhibition of human IGROV1 cells assessed as cell growth at 0.1 uM incubated for 48 hrs by sulforhodamine B assay relative to control; type: functional; settings: IGROV-1, 48 h, read-out: Activity
# HL-60(TB) [5] = experiment: Growth inhibition of human HL-60(TB) cells assessed as cell growth at 100 uM incubated for 48 hrs by sulforhodamine B assay relative to control; type: functional; settings: HL-60, 48 h, read-out: Activity
# U-251 = experiment: Growth inhibition of human U251 cells assessed as cell growth at 0.1 uM incubated for 48 hrs by sulforhodamine B assay relative to control; type: functional; settings: U-251, 48 h, read-out: Activity
# T47D = experiment: Growth inhibition of human T47D cells incubated for 48 hrs by sulforhodamine B assay; type: functional, cell-based
# Malme-3M = experiment: Growth inhibition of human MALME-3M cells assessed as cell growth at 0.01 uM incubated for 48 hrs by sulforhodamine B assay relative to control; type: functional; settings: read-out: Activity
# HL-60(TB) [6] = experiment: Growth inhibition of human HL-60(TB) cells assessed as cell growth at 1 uM incubated for 48 hrs by sulforhodamine B assay relative to control; type: functional; settings: HL-60, 48 h, read-out: Activity
# MDA-MB-468 = experiment: Growth inhibition of human MDA-MB-468 cells assessed as cell growth at 1 uM incubated for 48 hrs by sulforhodamine B assay relative to control; type: functional; settings: MDA-MB-468, 48 h, read-out: Activity
# SK-MEL-28 = experiment: Growth inhibition of human SK-MEL-28 cells incubated for 48 hrs by sulforhodamine B assay; type: functional, cell-based; settings: SK-MEL-28, 48 h
# UACC-257 = experiment: Growth inhibition of human UACC257 cells incubated for 48 hrs by sulforhodamine B assay; type: functional, cell-based; settings: UACC-257, 48 h
# RXF 393 = experiment: Growth inhibition of human RXF393 cells assessed as cell growth at 0.01 uM incubated for 48 hrs by sulforhodamine B assay relative to control; type: functional; settings: RXF 393, 48 h, read-out: Activity
# SNB-75 = experiment: Growth inhibition of human SNB75 cells incubated for 48 hrs by sulforhodamine B assay; type: functional, cell-based; settings: SNB-75, 48 h
# KM12 = experiment: Growth inhibition of human KM12 cells incubated for 48 hrs by sulforhodamine B assay; type: functional, cell-based; settings: KM12, 48 h
# A549 = experiment: Growth inhibition of human A549/ATCC cells incubated for 48 hrs by sulforhodamine B assay; type: functional, cell-based; settings: A549, 48 h
# HT-29 [7] = experiment: Growth inhibition of human HT-29 cells assessed as cell growth at 1 uM incubated for 48 hrs by sulforhodamine B assay relative to control; type: functional; settings: HT-29, 48 h, read-out: Activity
# [8] = read-out: LC50 (the source's name)
# [9] = read-out: pLC50 (the source's name) (converted)
compound,measurement,setting,value
COc1cc(Cl)cc(-c2nn(-c3cccc(NC(=O)Nc4cccc(C(F)(F)F)c4)c3)cc2-c2ccncc2)c1,growth at 0.1 µM,MOLT-4 [1],55%
same,growth at 0.01 µM,K562,104%
same,growth at 0.01 µM,CAKI-1,102%
same,growth at 1 µM,PC-3,27%
same,growth at 100 µM,HCT-116,-81%
same,growth at 100 µM,MOLT-4 [2],-36%
same,growth at 1 µM,M14,64%
same,IC50,UO-31,1.03 µM
same,GI50,UO-31; read-out: GI50,1.03 µM
same,CC50,UO-31; [8],> 100 µM
same,TGI,UO-31; read-out: TGI,77.5 µM
same,GI50,UO-31; read-out: pGI50 (converted),1.02 µM
same,CC50,UO-31; [9],> 100 µM
same,TGI,UO-31; read-out: pTGI (converted),7.76 µM
same,growth at 1 µM,MCF7,62%
same,growth at 100 µM,CCRF-CEM,-18%
same,growth at 100 µM,NCI/ADR-RES,-22%
same,growth at 100 µM,SR,-30%
same,growth at 0.01 µM,HT-29 [3],102%
same,growth at 0.01 µM,HL-60(TB) [4],96%
same,GI50,MDA-MB-231; read-out: GI50,1.59 µM
same,CC50,MDA-MB-231; [8],> 100 µM
same,TGI,MDA-MB-231; read-out: TGI,49.1 µM
same,GI50,MDA-MB-231; read-out: pGI50 (converted),1.58 µM
same,CC50,MDA-MB-231; [9],> 100 µM
same,TGI,MDA-MB-231; read-out: pTGI (converted),4.9 µM
same,growth at 0.1 µM,IGROV-1,96%
same,growth at 100 µM,HL-60(TB) [5],-28%
same,growth at 0.1 µM,U-251,93%
same,GI50,T47D; read-out: GI50,1.23 µM
same,CC50,T47D; [8],> 100 µM
same,TGI,T47D; read-out: TGI,59.9 µM
same,GI50,T47D; read-out: pGI50 (converted),1.23 µM
same,CC50,T47D; [9],> 100 µM
same,TGI,T47D; read-out: pTGI (converted),6.92 µM
same,growth at 0.01 µM,Malme-3M,95%
same,growth at 1 µM,HL-60(TB) [6],81%
same,growth at 1 µM,MDA-MB-468,51%
same,GI50,SK-MEL-28; read-out: GI50,2.53 µM
same,CC50,SK-MEL-28; [8],> 100 µM
same,TGI,SK-MEL-28; read-out: TGI,12.1 µM
same,GI50,SK-MEL-28; read-out: pGI50 (converted),2.51 µM
same,CC50,SK-MEL-28; [9],> 100 µM
same,TGI,SK-MEL-28; read-out: pTGI (converted),12 µM
same,GI50,UACC-257; read-out: GI50,1.75 µM
same,CC50,UACC-257; [8],21.5 µM
same,TGI,UACC-257; read-out: TGI,45.5 µM
same,GI50,UACC-257; read-out: pGI50 (converted),1.74 µM
same,CC50,UACC-257; [9],21.4 µM
same,TGI,UACC-257; read-out: pTGI (converted),4.68 µM
same,growth at 0.01 µM,RXF 393,93%
same,GI50,SNB-75; read-out: GI50,1.76 µM
same,CC50,SNB-75; [8],> 100 µM
same,TGI,SNB-75; read-out: TGI,13.9 µM
same,GI50,SNB-75; read-out: pGI50 (converted),1.78 µM
same,CC50,SNB-75; [9],> 100 µM
same,TGI,SNB-75; read-out: pTGI (converted),13.8 µM
same,GI50,KM12; read-out: GI50,0.611 µM
same,CC50,KM12; [8],> 100 µM
same,TGI,KM12; read-out: TGI,47 µM
same,GI50,KM12; read-out: pGI50 (converted),6.17 µM
same,CC50,KM12; [9],> 100 µM
same,TGI,KM12; read-out: pTGI (converted),4.79 µM
same,IC50,A549,0.73 µM
same,GI50,A549; read-out: GI50,0.726 µM
same,CC50,A549; [8],> 100 µM
same,TGI,A549; read-out: TGI,74.2 µM
same,GI50,A549; read-out: pGI50 (converted),0.724 µM
same,CC50,A549; [9],> 100 µM
same,TGI,A549; read-out: pTGI (converted),7.41 µM
same,growth at 1 µM,HT-29 [7],65%
